Experimental data as given in patent publication US9260504B2, “N- and C-terminal substituted antagonistic analogs of GH-RH” (University of Miami, priority 2008, dated 2016).

Legend:
Format in all cases: in vivo
[1] = system: PC-3 human hormone-independent prostate cancer; assay: PC-3 human prostate cancer xenografts in nude mice, Experiment 3; details: 2 μg/day s.c., 28 days
Experimental: (§1) Male nude mice were implanted s.c. with 3 mm^3 pieces of PC-3 human hormone-independent prostate cancer tissue on both flanks. When tumors reached a volume of approximately 50 mm^3, the mice were divided into 12 experimental groups with 8 to 10 animals in each group and received single daily injections for 28 days as follows: 1. Control (vehicle solution); 2. JMR-132 (10 μg/day s.c.); 3. Peptide 11113 (2 μg/day s.c.); 4. Peptide 11119 (2 μg/day s.c.); 5. Peptide 11209 (2 μg/day s.c.); 6. Peptide 11313 (2 μg/day s.c.); 7. Peptide 11408 (2 μg/day s.c.); 8. Peptide 11435 (2 μg/day s.c.); 9. Peptide 11457 (2 μg/day s.c.); 10. Peptide 11459 (2 μg/day s.c.); 11. Peptide 11469 (2 μg/day s.c.); 12. Peptide 11491 (2 μg/day s.c.).
(§2) Tumor volumes were measured once a week. The experiment was ended on day 28 by sacrificing the mice under Isoflurane anesthesia. Resulting tumors were cleaned, weighed, and snap-frozen until further analyses. Statistical analyses of the measurement results were done by two-tailed t-test, p<0.05 being considered significant.

[2] = system: H-460 human non-small cell lung cancer; assay: H-460 human non-SCLC xenografts in nude mice, Experiment 2; details: 5 μg/day s.c.; for Tumor growth after 4 weeks (%): 28 days, means±S.E.; for Inhibition (%): after 4 weeks
Experimental: Male nude mice were implanted s.c. with 3 mm^3 pieces of H-460 human non-SCLC tumor tissue on both flanks. When tumors had grown to a mean volume of approximately 90 mm^3, the mice were randomly assigned into 12 experimental groups with 8 to 10 animals in each group and received single daily injections for 28 days as follows: 1. Control (vehicle solution); 2. JMR-132 (10 μg/day s.c.); 3. Peptide 11109 (5 μg/day s.c.); 4. Peptide 11113 (5 μg/day s.c.); 5. Peptide 11119 (5 μg/day s.c.); 6. Peptide 11209 (5 μg/day s.c.); 7. Peptide 11313 (5 μg/day s.c.); 8. Peptide 11408 (5 μg/day s.c.); 9. Peptide 11435 (5 μg/day s.c.); 10. Peptide 11459 (5 μg/day s.c.); 11. Peptide 11469 (5 μg/day s.c.); 12. Peptide 11491 (5 μg/day s.c.). Tumor volumes were measured once a week. The experiment was ended on day 28 by sacrificing the mice under Isoflurane anesthesia. Resulting tumors were cleaned, weighed, and snap-frozen until further analyses. Statistical analyses of the measurement results were done by two-tailed t-test, p<0.05 being considered significant. Data are presented as the means±S.E.

[3] = system: H-460 human non-small cell lung cancer; assay: H-460 human non-SCLC xenografts in nude mice, Experiment 3; details: 28 days; for Tumor growth inhibition after 4 weeks (%): 5 μg/day s.c.; for Inhibition of H-460 lung tumor growth compared with reference peptide JMR-132: 5 μg/day vs JMR-132 10 μg/day
Experimental: Male nude mice were implanted s.c. with 3 mm^3 pieces of H-460 human non-SCLC tumor tissue on both flanks. When tumors had grown to a mean volume of approximately 90 mm^3, the mice were randomly assigned into 8 experimental groups with 8 to 10 animals in each group and received single daily injections for 28 days as follows: 1. Control (vehicle solution); 2. JMR-132 (10 μg/day s.c.); 3. Peptide 11123 (5 μg/day s.c.); 4. Peptide 11125 (5 μg/day s.c.); 5. Peptide 11307 (5 μg/day s.c.); 6. Peptide 11317 (5 μg/day s.c.); 7. Peptide 11473 (5 μg/day s.c.); 8. Peptide 11485 (5 μg/day s.c.). Tumor volumes were measured once a week. The experiment was ended on day 28 by sacrificing the mice under Isoflurane anesthesia. Resulting tumors were cleaned, weighed, and snap-frozen until further analyses. Statistical analyses of the measurement results were done by two-tailed t-test, p<0.05 being considered significant.

[4] = system: PC-3 human hormone-independent prostate cancer; assay: PC-3 human prostate cancer xenografts in nude mice, Experiment 4; details: for Tumor growth after 28 days (%) / Tumor growth after 46 days (%) / Inhibition (%): 2 μg/day s.c.; for Inhibitory effect on PC-3 tumors compared with reference peptide JMR-132: 2 μg/day vs JMR-132 10 μg/day, after 46 days of treatment
Experimental: as §1, §2
All experimental details of Experiment 4 are the same as for Experiment 3, with the following difference. When tumors reached a volume of approximately 50 mm^3, the mice were divided into 11 experimental groups with 8 to 10 animals in each group and received single daily injections for 46 days as follows: 1. Control (vehicle solution); 2. JMR-132 (10 μg/day s.c.); 3. Peptide 11123 (2 μg/day s.c.); 4. Peptide 11125 (2 μg/day s.c.); 5. Peptide 11213 (2 μg/day s.c.); 6. Peptide 11433 (2 μg/day s.c.); 7. Peptide 11473 (2 μg/day s.c.); 8. Peptide 11485 (2 μg/day s.c.); 9. Peptide 11497 (2 μg/day s.c.); 10. Peptide 11499 (2 μg/day s.c.); 11. Peptide 11521 (2 μg/day s.c.). Tumor volumes were measured once a week. The experiment was ended on day 46 by sacrificing the mice under Isoflurane anesthesia. Resulting tumors were cleaned, weighed, and snap-frozen until further analyses. Statistical analyses of the measurement results were done by two-tailed t-test, p<0.05 being considered significant.

| Substance | Tumor growth inhibition after 4 weeks (%) [1] | Tumor growth after 4 weeks (%) [2] | Inhibition (%) [2] | Tumor growth inhibition after 4 weeks (%) [3] | Inhibition of H-460 lung tumor growth compared with reference peptide JMR-132 [3] | Tumor growth after 28 days (%) [4] | Tumor growth after 46 days (%) [4] | Inhibitory effect on PC-3 tumors compared with reference peptide JMR-132 [4] | Inhibition (%) ([4]; after 28 days) | Inhibition (%) ([4]; after 46 days) |
| --- | --- | --- | --- | --- | --- | --- | --- | --- | --- | --- |
| [(Ac-Ada)^0-Tyr^1, D-Arg^2, Cpa^6, Ala^8, Har^9, Tyr(Me)^10, His^11, Orn^12, Abu^15, His^20, Orn^21, Nle^27, D-Arg^28, Har^29-Ada^30]hGH-RH(1-29)NH2 [Peptide 11469] | 78.07% | 4810 ± 1977% | 39.06% |  |  |  |  |  |  |  |
| [(Ac-Ada)^0-Tyr^1, D-Arg^2, Cpa^6, Ala^8, Har^9, Tyr(Me)^10, His^11, Orn^12, Abu^15, His^20, Orn^21, Nle^27, D-Arg^28, Har^29]hGH-RH(1-29)NH2 [Peptide 11435] | 75.11% | 4170 ± 2064% | 47.17% |  |  |  |  |  |  |  |
| [(Ac-Ada-D-Phe)^0-Tyr^1, D-Arg^2, Cpa^6, Ala^8, Har^9, Tyr(Me)^10, His^11, Abu^15, His^20, Nle^27, D-Arg^28, Har^29]hGH-RH(1-29)NH2 [Peptide 11119] | 32.03% | 5254 ± 1524% | 33.44% |  |  |  |  |  |  |  |
| [(Ac-Amc)-Tyr^1, D-Arg^2, Cpa^6, Ala^8, Har^9, Tyr(Me)^10, His^11, Orn^12, Abu^15, His^20, Nle^27, D-Arg^28, Har^29-Amc^30]hGH-RH(1-29)NH2 [Peptide 11307] |  |  |  | 30.98% | more potently inhibited the growth of H-460 lung tumors than the reference peptide JMR-132 |  |  |  |  |  |
| [(Ac-Amc)^0-Tyr^1, D-Arg^2, Cpa^6, (Me-Ala)^8, Har^9, Tyr(Me)^10, His^11, Abu^15, His^20, Nle^27, D-Arg^28, Har^29]hGH-RH(1-29)NH2 [Peptide 11408] | 63.61% | 3998 ± 1113% | 49.35% |  |  |  |  |  |  |  |
| [(CH3—(CH2)10CO-Ada)^0-Tyr^1, D-Arg^2, Cpa^6, Ala^8, Har^9, Tyr(Me)^10, His^11, Orn^12, Abu^15, His^20, Orn^21, Nle^27, D-Arg^28, Har^29-Ada^30]hGH-RH(1-29)NH2 [Peptide 11485] |  |  |  | 9.04% |  | 794% | 1257% | had a more potent inhibitory effect than reference peptide JMR-132 | 41.96% | 62.24% |
| [(CH3—(CH2)10—CO-Ada)^0-Tyr^1, D-Arg^2, Cpa^6, Ala^8, Har^9, Tyr(Me)^10, His^11, Abu^15, His^20, Nle^27, D-Arg^28, Har^29]hGH-RH(1-29)NH2 [Peptide 11125] |  |  |  | 33.03% | more potently inhibited the growth of H-460 lung tumors than the reference peptide JMR-132 | 424% | 1009% | had a more potent inhibitory effect than reference peptide JMR-132 | 68.97% | 69.69% |
| [(Dca-Ada)^0-Tyr^1, D-Arg^2, (Phe(F)5)^6, Ala^8, Har^9, Tyr(Me)^10, His^11, Orn^12, Abu^15, His^20, Orn^21, Nle^27, D-Arg^28, Har^29]hGH-RH(1-29)NH2 [Peptide 11491] | 72.43% | 1926 ± 473% | 75.60% |  |  |  |  |  |  |  |
| [(Dca-Ada)^0-Tyr^1, D-Arg^2, Cpa^6, Ala^8, Har^9, Tyr(Me)^10, His^11, Abu^15, His^20, Nle^27, D-Arg^28, Har^29]hGH-RH(1-29)NH2 [Peptide 11123] |  |  |  | 35.74% | more potently inhibited the growth of H-460 lung tumors than the reference peptide JMR-132 | 786% | 1849% |  | 42.57% | 44.48% |
| [(PhAc^0-Ada)-Tyr^1, D-Arg^2, Cpa^6, Ala^8, Har^9, Tyr(Me)^10, His^11, Orn^12, Abu^15, His^20, Orn^21, Nle^8, D-Arg^28, Har^29-Ada^30]hGH-RH(1-29)NH2 [Peptide 11473] |  |  |  | 54.64% | more potently inhibited the growth of H-460 lung tumors than the reference peptide JMR-132 | 442% | 1072% | had a more potent inhibitory effect than reference peptide JMR-132 | 67.68% | 67.80% |
| [(PhAc^0-Ada)-Tyr^1, D-Arg^2, Cpa^6, Ala^8, Har^9, Tyr(Me)^10, His^11, Orn^12, Abu^15, His^20, Orn^21, Nle^27, D-Arg^28, Har^29]hGH-RH(1-29)NH2 [Peptide 11459] | 53.60% | 2418 ± 923% | 69.36% |  |  |  |  |  |  |  |
| [Fer^0-Tyr^1, D-Arg^2, Cpa^6, Ala^8, Har^9, Tyr(Me)^10, His^11, Abu^15, His^20, Nle^27, D-Arg^28, Har^29]hGH-RH(1-29)NH2 [Peptide 11113] | 29.37% | 6790 ± 3340% | 13.98% |  |  |  |  |  |  |  |
| [PhAc^0-Tyr^1, D-Arg^2, Cpa^6, Ala^8, Har^9, Tyr(Me)^10, His^11, Abu^15, His^20, Nle^27, D-Arg^28, Har^29-Apa^30]hGH-RH(1-29)NH2 [Peptide 11209] | 48.04% | 6377 ± 2477% | 19.21% |  |  |  |  |  |  |  |
